Reference: ChEMBL document CHEMBL1201862, “PubChem BioAssay data set” (2004)
Calls of active or inactive are those of the source.

Columns and labels:
14-3-3 protein gamma = 14-3-3 protein gamma (Homo sapiens, UniProt P61981); experiment: modulators of 14-3-3 gamma client binding – dose response (AID 711); assay type: functional
[1] = biological target: T1, E3 ubiquitin-protein ligase XIAP (Homo sapiens, UniProt P98170); experiment: Counter Screen using XIAP-Bir3 for Chemical Antagonists of Bir1/2 domains of IAP-family anti-apoptotic proteins. [Related pubchem assays (depositor defined):AID1018, AID1449, AID1514, AID1638, AID1749, AID1750, AID488957, AID488963]
T1 sequence (P98170 whole entry): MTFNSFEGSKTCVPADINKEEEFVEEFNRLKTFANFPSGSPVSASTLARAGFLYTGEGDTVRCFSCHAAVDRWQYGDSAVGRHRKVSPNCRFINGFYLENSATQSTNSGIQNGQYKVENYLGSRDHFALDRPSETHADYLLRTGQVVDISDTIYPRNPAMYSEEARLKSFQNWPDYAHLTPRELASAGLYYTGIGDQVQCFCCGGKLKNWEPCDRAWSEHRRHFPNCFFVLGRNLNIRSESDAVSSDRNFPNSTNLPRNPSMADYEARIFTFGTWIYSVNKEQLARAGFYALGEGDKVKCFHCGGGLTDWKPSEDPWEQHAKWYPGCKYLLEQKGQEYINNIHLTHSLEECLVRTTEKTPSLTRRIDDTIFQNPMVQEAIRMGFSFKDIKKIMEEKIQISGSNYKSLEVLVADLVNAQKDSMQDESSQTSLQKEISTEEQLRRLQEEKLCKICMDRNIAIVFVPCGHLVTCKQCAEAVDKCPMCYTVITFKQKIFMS

[2] = biological target: T1, E3 ubiquitin-protein ligase XIAP; experiment: small molecules displacing peptide from XIAP – biochemical, IAP family, fluorescence polarization (AID 1018); assay type: functional
[3] = M. tuberculosis H37Rv growth inhibitors, H37Rv strain (AID 1626); assay type: functional
[4] = A High Throughput Confirmatory Assay used to Identify Novel Compounds that Inhibit Mycobacterium Tuberculosis in the absence of Glycerol.; assay type: functional
[5] = biological target: T2, Tyrosine-protein phosphatase non-receptor type 11 (Homo sapiens, UniProt Q06124); experiment: PTPN11 enzyme inhibitors – biochemical, selectivity assay for STEP inhibitor project, dose response (AID 602367); assay type: functional; settings: read-out: IC50_Mean
T2 sequence (Q06124 whole entry): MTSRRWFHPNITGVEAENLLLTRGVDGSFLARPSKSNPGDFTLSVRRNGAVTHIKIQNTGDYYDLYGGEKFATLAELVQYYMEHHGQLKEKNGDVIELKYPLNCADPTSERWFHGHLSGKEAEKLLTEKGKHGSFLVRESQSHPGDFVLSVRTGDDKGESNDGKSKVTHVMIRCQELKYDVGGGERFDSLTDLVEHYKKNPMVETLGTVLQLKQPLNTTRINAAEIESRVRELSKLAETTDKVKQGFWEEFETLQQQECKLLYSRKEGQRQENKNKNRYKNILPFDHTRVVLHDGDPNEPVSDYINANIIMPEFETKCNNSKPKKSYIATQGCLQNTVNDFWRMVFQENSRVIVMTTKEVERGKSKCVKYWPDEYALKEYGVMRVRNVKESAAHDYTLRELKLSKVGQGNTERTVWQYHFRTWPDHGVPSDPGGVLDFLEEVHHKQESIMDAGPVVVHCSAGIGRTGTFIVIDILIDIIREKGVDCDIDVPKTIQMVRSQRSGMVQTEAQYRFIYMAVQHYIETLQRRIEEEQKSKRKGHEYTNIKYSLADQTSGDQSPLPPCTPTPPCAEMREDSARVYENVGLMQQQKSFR

[6] = biological target: T3, Tyrosine-protein phosphatase non-receptor type 5 (Homo sapiens, UniProt P54829); experiment: PTPN5 enzyme inhibition – biochemical, fluorescence intensity, uHTS hits, confirmation (AID 602372); assay type: functional; settings: read-out: IC50_Mean
T3 sequence (P54829 whole entry): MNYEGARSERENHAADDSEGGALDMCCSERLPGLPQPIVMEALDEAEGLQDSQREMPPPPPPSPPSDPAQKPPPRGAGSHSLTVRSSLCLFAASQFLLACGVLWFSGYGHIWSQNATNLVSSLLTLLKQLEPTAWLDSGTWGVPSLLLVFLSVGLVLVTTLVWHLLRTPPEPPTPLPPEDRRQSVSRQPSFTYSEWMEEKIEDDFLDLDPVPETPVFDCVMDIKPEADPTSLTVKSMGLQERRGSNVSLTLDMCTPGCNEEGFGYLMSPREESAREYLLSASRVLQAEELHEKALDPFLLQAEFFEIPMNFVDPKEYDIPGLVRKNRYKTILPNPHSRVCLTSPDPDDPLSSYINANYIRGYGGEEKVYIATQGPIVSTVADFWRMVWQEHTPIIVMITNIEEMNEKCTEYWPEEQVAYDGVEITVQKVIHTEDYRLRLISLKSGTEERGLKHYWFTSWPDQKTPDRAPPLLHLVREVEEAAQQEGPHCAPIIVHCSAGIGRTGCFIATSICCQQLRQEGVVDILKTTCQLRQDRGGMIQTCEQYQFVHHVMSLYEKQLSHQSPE

Ephrin type-A receptor 4 = Ephrin type-A receptor 4 (Mus musculus, UniProt Q03137); experiment: EphA4 ligand-binding antagonists – biochemical, colorimetric, mouse EphA4, primary screen (AID 689); assay type: functional
Sequence of Ephrin type-A receptor 4 (Q03137 whole entry): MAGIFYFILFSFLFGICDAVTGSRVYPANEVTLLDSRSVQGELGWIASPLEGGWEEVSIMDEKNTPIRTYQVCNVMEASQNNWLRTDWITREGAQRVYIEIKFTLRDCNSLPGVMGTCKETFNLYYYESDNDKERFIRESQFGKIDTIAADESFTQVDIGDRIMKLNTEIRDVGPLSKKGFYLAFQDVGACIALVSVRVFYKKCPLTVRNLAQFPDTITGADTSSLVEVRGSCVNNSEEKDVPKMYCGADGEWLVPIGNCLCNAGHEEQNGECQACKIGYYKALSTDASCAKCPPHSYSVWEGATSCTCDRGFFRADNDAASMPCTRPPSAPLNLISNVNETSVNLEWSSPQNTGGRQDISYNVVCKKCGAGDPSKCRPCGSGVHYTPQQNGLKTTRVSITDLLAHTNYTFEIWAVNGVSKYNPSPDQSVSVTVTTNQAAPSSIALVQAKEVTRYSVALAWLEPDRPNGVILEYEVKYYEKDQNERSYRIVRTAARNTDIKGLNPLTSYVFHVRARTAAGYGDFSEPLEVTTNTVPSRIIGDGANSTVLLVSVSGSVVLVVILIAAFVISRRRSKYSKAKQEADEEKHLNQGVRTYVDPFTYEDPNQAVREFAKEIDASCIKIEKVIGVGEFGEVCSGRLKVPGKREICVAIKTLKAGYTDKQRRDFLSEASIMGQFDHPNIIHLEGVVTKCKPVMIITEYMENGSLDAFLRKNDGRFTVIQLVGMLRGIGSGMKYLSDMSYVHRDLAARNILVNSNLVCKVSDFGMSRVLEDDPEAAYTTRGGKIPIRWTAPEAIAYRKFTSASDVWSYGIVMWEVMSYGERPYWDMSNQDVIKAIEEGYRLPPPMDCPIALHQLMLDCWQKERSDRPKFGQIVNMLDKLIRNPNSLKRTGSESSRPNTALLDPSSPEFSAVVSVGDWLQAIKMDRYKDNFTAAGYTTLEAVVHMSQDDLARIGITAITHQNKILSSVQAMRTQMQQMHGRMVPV

[7] = biological target: Dual specificity protein phosphatase 3 (Homo sapiens, UniProt P51452); experiment: VHR phosphatase inhibition, dose response, selectivity assay for STEP inhibitor project, biochemical (AID 602374); assay type: functional; settings: read-out: IC50_Mean
Sequence of Dual specificity protein phosphatase 3 (P51452 whole entry): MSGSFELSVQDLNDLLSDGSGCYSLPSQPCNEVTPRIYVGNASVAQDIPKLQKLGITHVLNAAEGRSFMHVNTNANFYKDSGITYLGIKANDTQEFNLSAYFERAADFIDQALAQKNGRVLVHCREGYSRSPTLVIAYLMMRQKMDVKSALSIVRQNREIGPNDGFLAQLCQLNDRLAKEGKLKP

[8] = biological target: Tyrosine-protein phosphatase non-receptor type 22 (Homo sapiens, UniProt Q9Y2R2); experiment: lymphoid phosphatase LYP inhibitors – biochemical, selectivity assay for STEP inhibitor project, dose response (AID 624241); assay type: functional
Sequence of Tyrosine-protein phosphatase non-receptor type 22 (Q9Y2R2 whole entry): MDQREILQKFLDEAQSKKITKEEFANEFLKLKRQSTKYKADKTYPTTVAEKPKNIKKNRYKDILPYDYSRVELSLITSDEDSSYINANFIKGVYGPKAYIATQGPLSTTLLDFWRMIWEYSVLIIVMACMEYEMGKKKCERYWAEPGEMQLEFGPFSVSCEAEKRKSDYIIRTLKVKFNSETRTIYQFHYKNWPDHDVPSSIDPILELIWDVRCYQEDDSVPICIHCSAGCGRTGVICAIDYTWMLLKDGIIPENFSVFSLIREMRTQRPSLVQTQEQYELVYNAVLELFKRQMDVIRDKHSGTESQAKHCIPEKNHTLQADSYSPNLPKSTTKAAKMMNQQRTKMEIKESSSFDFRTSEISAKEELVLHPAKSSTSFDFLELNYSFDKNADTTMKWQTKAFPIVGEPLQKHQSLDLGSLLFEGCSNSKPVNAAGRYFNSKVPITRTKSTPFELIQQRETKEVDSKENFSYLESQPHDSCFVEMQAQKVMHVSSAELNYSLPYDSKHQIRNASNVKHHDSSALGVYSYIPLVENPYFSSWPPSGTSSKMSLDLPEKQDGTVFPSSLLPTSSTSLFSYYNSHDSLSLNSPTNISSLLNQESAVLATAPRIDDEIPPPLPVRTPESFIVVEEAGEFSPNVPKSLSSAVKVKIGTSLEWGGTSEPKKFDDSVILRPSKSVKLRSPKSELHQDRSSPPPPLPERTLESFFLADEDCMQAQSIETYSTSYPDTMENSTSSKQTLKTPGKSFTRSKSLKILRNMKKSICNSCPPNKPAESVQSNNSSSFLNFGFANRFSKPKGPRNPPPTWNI

[9] = biological target: Sphingosine 1-phosphate receptor 2 (Homo sapiens, UniProt O95136); experiment: Dose Response Cell Based Assay for Agonists of the S1P2 Receptor of Purchased Analogues. [Related pubchem assays: 729, 843, 854, 736 ]; assay type: functional
Sequence of Sphingosine 1-phosphate receptor 2 (O95136 whole entry): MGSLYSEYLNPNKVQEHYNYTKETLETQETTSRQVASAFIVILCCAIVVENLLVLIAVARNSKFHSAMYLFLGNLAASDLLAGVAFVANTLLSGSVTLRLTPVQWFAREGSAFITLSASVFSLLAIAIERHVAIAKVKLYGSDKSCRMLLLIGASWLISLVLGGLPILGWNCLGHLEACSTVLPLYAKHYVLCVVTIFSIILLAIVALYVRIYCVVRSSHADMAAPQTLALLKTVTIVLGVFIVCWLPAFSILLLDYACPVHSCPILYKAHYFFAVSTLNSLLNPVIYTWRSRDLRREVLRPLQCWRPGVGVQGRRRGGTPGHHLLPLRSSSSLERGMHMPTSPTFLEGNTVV

[10] = biological target: COUP transcription factor 2 (Homo sapiens, UniProt P24468); experiment: Luminescence-based cell-based high throughput dose response assay to identify inhibitors of COUP-TFII (NR2F2).; assay type: functional;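 note: HEK293 cells transiently cotransfected with COUP-TFII expression vector and reporter; luciferase reporter luminescence driven by COUP-TFII from the pX2-168 reporter plasmid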
Sequence of COUP transcription factor 2 (P24468 whole entry): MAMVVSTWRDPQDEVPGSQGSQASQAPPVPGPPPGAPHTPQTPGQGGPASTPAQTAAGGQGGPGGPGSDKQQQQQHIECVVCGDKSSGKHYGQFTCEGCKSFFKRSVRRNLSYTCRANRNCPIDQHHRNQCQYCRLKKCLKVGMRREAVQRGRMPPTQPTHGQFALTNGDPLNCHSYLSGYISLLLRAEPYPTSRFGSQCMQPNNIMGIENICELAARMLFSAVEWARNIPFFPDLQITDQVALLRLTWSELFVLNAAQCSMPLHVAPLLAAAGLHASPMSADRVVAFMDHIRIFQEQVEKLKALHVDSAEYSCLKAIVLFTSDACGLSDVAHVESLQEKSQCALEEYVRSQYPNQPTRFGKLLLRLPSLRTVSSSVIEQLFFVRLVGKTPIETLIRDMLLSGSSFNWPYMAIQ

[11] = biological target: T4, Heat shock factor protein 1 (Mus musculus, UniProt P38532); experiment: decrease of HSF1-responsive luciferase luminescence – cell-based, NIH3T3, dose retest, confirmation (AID 2382); assay type: functional;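 note: NIH3T3 fibroblasts with HSF1-driven luciferase reporter stressed by proteasome inhibitor MG132; luminescence from HSF1-driven luciferase expression after 8 hours of MG132 stress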
T4 sequence (P38532 whole entry): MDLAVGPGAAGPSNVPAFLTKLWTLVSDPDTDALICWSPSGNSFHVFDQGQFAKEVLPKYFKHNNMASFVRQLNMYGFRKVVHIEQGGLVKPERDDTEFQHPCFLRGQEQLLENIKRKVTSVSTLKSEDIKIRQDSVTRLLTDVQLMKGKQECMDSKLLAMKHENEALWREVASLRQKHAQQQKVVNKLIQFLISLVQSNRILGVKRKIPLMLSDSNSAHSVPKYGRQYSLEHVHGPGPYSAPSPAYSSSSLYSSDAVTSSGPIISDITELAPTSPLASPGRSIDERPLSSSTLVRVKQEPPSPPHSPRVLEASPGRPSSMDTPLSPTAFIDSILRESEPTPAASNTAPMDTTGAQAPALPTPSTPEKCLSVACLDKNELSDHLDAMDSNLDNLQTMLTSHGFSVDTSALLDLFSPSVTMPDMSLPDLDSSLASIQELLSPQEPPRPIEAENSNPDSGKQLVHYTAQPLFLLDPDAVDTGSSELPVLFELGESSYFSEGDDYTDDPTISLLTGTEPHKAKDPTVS

Galanin receptor type 2 = Galanin receptor type 2 (Homo sapiens, UniProt O43603); experiment: Dose Response cell-based high-throughput screening assay to identify antagonists of galanin receptor 2 (GALR2). [Related pubchem assays: 828, 866 ]; assay type: functional
cells = assay type: functional, cell-based; settings: HEK-CNG
Galanin receptor type 3 = Galanin receptor type 3 (Homo sapiens, UniProt O60755); experiment: Fluorescence-based cell-based primary high throughput dose response assay to identify antagonists of the Galanin Receptor 3 (GalR3).; assay type: functional
Sequence of Galanin receptor type 3 (O60755 whole entry): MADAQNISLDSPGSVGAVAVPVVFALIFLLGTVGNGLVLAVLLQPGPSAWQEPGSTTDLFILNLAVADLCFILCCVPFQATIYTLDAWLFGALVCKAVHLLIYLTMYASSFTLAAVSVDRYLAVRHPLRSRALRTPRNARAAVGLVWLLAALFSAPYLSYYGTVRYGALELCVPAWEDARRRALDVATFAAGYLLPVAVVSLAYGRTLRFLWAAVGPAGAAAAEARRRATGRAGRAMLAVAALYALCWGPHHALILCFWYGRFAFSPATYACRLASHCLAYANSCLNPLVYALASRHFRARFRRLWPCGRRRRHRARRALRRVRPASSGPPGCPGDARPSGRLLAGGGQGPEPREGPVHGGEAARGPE

Procathepsin L = Procathepsin L (Homo sapiens, UniProt P07711); experiment: CTSL1 protease inhibition – biochemical, QFRET, 1536-well, counter-screen for M1/M17 aminopeptidase inhibitor project, dose response (AID 2214)
HEK293 [12] = experiment: inhibition of NOD1-driven NF-kB reporter – cell-based, luminescence, uHTS, primary screen (AID 1578); assay type: functional; settings: Homo sapiens
Aminopeptidase N = biological target: T5, Aminopeptidase N (Plasmodium falciparum FcB1/Columbia, UniProt O96935); experiment: malaria alanyl aminopeptidase activity blockers – biochemical, fluorogenic H-Leu-NHMec substrate, 1536-well (AID 1445); set-up: species or system Plasmodium falciparum 3D7, 3D7
T5 sequence (O96935 whole entry): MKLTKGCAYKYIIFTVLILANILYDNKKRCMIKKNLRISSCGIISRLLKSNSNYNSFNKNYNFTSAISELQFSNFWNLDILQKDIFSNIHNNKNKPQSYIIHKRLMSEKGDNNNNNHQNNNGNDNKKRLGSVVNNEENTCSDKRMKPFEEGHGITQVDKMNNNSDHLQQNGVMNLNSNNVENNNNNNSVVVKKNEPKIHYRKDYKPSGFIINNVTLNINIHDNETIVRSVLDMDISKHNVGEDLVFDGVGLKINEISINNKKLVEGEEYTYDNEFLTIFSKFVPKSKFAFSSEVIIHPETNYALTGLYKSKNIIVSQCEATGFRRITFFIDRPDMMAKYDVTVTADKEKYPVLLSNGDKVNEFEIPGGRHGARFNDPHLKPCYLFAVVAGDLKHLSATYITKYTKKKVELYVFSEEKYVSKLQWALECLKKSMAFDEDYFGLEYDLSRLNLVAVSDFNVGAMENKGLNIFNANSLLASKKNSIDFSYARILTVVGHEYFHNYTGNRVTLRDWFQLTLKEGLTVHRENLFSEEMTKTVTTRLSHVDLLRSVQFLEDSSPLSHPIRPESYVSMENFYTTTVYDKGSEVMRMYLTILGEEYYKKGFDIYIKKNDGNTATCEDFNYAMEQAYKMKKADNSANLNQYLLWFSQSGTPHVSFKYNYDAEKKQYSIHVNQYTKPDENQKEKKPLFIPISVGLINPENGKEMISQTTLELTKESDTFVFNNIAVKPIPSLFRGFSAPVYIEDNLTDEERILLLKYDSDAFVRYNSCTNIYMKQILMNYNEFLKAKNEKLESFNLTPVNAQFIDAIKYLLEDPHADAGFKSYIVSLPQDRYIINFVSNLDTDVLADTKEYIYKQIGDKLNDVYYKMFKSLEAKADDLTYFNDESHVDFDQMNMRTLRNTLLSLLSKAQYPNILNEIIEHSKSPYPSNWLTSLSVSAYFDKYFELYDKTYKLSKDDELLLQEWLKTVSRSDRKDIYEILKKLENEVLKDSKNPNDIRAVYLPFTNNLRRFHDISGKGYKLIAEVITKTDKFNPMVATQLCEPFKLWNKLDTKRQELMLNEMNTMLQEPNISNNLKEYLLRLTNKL

HEK293 [13] = experiment: NOD2 signaling inhibitors in MDP-stimulated cells, cell-based, uHTS, luminescence (AID 2001); assay type: functional; settings: Homo sapiens
HEK293 [14] = experiment: cells; assay type: functional, cell-based; settings: Homo sapiens
Aspartyl aminopeptidase = Aspartyl aminopeptidase (Plasmodium falciparum 3D7, UniProt Q8I2J3); experiment: Counterscreen for inhibitors of M1 and M17 aminopeptidases: QFRET-based biochemical high throughput dose response assay for inhibitors of the Plasmodium falciparum M18 Aspartyl Aminopeptidase (PFM18AAP). [Related PubChem assays: 1619 (Screening assay (M17LAP inhibitors).), 1445 (Screening assay (M1AAP inhibitors).)]
Sequence of Aspartyl aminopeptidase (Q8I2J3 whole entry): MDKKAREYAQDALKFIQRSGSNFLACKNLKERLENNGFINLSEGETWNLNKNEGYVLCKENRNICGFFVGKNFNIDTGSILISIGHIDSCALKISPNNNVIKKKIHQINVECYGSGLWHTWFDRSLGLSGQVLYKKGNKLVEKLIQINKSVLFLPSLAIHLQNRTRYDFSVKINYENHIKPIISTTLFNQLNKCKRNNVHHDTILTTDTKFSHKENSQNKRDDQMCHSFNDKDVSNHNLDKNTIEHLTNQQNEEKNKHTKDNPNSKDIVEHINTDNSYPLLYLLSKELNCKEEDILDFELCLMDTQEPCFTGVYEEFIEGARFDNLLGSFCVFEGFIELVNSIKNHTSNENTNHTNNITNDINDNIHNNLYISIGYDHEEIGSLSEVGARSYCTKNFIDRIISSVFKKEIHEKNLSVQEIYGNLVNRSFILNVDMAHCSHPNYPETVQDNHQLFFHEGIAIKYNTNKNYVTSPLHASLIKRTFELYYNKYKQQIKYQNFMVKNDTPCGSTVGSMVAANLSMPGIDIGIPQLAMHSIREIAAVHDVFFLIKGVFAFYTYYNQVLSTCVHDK

HEK293 [15] = experiment: cells; assay type: functional, cell-based; settings: Homo sapiens; remark: listed apart in the source
[16] = biological target: T6, Calpain-2 catalytic subunit (Sus scrofa, UniProt P43367); experiment: m-calpain protease blockers, concentration series – biochemical, fluorogenic peptide substrate, dose response (AID 1420); assay type: functional
T6 sequence (P43367 whole entry): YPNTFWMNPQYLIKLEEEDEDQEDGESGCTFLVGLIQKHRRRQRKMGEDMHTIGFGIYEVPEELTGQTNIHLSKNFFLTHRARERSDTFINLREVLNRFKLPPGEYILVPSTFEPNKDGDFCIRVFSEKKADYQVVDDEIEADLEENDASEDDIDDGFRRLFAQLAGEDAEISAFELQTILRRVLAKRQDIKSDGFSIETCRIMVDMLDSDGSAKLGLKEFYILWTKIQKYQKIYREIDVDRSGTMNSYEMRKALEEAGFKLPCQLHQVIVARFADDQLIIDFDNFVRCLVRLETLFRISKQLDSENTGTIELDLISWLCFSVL

Bcl-2-related protein A1 [17] = biological target: T7, Bcl-2-related protein A1 (Mus musculus, UniProt Q07440); experiment: small-molecule antagonists of Bfl-1/BH3 interaction – biochemical, TR-FRET, mouse Bfl-1, confirmation (AID 621);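 note: TR-FRET binding of GST-Bfl-1 to FITC-labelled Bid peptide via terbium antibody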
T7 sequence (Q07440 whole entry): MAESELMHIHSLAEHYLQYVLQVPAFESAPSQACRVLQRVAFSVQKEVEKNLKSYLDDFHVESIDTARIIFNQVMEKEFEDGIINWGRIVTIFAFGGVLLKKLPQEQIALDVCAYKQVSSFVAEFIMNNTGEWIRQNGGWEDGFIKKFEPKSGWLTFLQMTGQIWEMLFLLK

[18] = biological target: Glyceraldehyde-3-phosphate dehydrogenase (Homo sapiens, UniProt P04406)
Sequence of Glyceraldehyde-3-phosphate dehydrogenase (P04406 whole entry): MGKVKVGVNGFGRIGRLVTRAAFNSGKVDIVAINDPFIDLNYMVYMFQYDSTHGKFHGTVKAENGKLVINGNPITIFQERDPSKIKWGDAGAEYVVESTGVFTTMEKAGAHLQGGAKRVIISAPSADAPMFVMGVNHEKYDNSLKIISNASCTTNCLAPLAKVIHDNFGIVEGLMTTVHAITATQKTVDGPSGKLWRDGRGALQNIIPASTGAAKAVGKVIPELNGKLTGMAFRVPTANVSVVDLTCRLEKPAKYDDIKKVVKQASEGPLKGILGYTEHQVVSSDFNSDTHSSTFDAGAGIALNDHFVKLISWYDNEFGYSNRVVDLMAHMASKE

Bcl-2-related protein A1 [19] = biological target: T7, Bcl-2-related protein A1; experiment: Bfl-1 binding inhibitors, SAR follow-up, biochemical, fluorescence polarization (AID 1070)

Sequence of 14-3-3 protein gamma (P61981 whole entry): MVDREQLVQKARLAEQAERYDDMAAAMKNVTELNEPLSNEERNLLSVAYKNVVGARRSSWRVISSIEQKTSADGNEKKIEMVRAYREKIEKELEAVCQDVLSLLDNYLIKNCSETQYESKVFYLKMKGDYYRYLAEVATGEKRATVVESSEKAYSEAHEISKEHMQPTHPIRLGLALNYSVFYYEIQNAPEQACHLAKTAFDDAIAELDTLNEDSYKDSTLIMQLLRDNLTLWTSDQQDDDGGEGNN

CCn1c(CSc2nnc(-c3cccnc3)n2-c2ccccc2C)nc2cc(C(=O)O)ccc21
IC50 (14-3-3 protein gamma): < 0.781 µM (active)
IC50 [1]: > 1.56 µM (inactive)
IC50 [2]: > 0.781 µM (not active)

Fc1ccc(-c2nnc(CSc3nnc(-c4cccs4)o3)o2)cc1
IC50 [3]: > 100 µM (active)

CC(Oc1cc2oc(=O)c3c(c2cc1Cl)CCCC3)C(=O)NCc1ccccn1 (configuration not stated)
IC50 [4]: > 100 µM (active)

Cc1ccc(-n2c(C)nc3oc4ccccc4c(=O)c3c2=O)cc1
IC50 [5]: 1.13 µM (active)
IC50 [6]: 14.4 µM (active)
IC50 (Ephrin type-A receptor 4): > 100 µM (not active)
IC50 [7]: 0.779 µM (active)
IC50 [8]: 14 µM (active)

Cc1nn(CC(=O)c2cc(C)n(Cc3ccccc3)c2C)c(C)c1[N+](=O)[O-]
EC50 [9]: > 30 µM (not active)

Cc1sc2ncnc(NCCc3ccc(S(N)(=O)=O)cc3)c2c1C
IC50 [10]: 4.23 µM (active)
EC50 [11]: > 195 µM (not active)
IC50 (Galanin receptor type 2): > 42 µM (not active)
EC50 (cells): > 29.9 µM (inactive)
IC50 (Galanin receptor type 3): 2.95 µM (active)

O=C(O)C(Cc1ccccc1)N1C(=O)/C(=C/c2cccc3ccccc23)SC1=S (configuration not stated)
IC50 (Procathepsin L): 28.4 µM (not active)
EC50 (HEK293 [12]): 16.5 µM (active)
IC50 (Aminopeptidase N): 14.9 µM (active)
IC50 (HEK293 [13]): 18.5 µM (inactive)
IC50 (HEK293 [14]): > 20 µM (inactive)
IC50 (Aspartyl aminopeptidase): > 73.5 µM (not active)
IC50 (HEK293 [15]): > 20 µM (inactive)
IC50 [16]: > 50 µM (not active)

O=C1C(Cl)=C(N2CCN(CCOCCO)CC2)C(=O)N1c1ccnc(Cl)c1
IC50 (Bcl-2-related protein A1 [17]): 20.5 µM (active)
IC50 [18]: > 100 µM (not active)
IC50 (Bcl-2-related protein A1 [19]): 33.2 µM (active)
